Measured values taken from patent US11479539B2, “Small molecule modulators of the BTB domain of Keap1” (MedImmune Limited, priority 2017, dated 2022).

target: Keap1 (Homo sapiens (Human), UniProt Q14145); assay: HEK293 ARE luciferase assay; assay type: cell-based; conditions: HEK-293 ARE firefly luciferase transiently transfected cells; 18 h incubation; mean of 1 to 20 individual measurements
Summary of the method: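 Transiently transfected HEK-293 ARE firefly luciferase cells (10,000/well, DMEM with 10% FCS) exposed to compound, 10-point curve from 100 μM top, 0.3% DMSO, 18 h at 37 °C. SteadyGlo luminescence; activity normalised to 30 μM tBHQ (stimulator) and DMSO (neutral), activity threshold 50; means of 1-20 measurements.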

Sequence of Keap1 (Q14145 whole entry): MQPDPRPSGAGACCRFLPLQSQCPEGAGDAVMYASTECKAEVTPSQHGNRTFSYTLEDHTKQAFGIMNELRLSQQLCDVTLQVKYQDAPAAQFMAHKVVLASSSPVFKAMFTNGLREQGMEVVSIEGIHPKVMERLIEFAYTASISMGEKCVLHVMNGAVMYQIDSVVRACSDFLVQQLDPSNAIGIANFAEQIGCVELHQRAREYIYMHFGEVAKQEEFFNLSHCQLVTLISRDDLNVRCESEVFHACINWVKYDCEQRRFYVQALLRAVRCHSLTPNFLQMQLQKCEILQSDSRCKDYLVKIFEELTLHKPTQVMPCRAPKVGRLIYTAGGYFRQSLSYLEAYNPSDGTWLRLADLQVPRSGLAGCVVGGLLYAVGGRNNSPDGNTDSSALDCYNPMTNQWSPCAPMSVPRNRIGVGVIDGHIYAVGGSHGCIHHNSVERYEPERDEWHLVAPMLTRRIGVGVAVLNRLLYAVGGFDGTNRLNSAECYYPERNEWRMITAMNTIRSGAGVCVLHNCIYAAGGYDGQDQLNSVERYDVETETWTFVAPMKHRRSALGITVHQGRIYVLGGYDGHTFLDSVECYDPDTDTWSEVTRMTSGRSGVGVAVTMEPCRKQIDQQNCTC

Structure (SMILES) | EC50 [µM]
COC1(c2ncc(F)cc2-c2ccn3nc(C)nc3c2)C=C(C#N)C(=O)C(C)(C)C1 (single isomer, unassigned) [Compound 229, 3-[5-fluoro-3-(2-methyl[1,2,4]triazolo[1,5-a]pyridin-7-yl)pyridin-2-yl]-3-methoxy-5,5-dimethyl-6-oxocyclohex-1-ene-1-carbonitrile] | 0.01
COC1(c2ncc(F)cc2-c2cnc(C)c(F)c2)C=C(C#N)C(=O)C(C)(C)C1 (single isomer, unassigned) [Compound 230, 3-(5,5′-difluoro-6′-methyl[3,3′-bipyridin]-2-yl)-3-methoxy-5,5-dimethyl-6-oxocyclohex-1-ene-1-carbonitrile] | 0.016
COC1(c2ncc(F)cc2-c2cnn3c2CCC3)C=C(C#N)C(=O)C(C)(C)C1 (single isomer, unassigned) [Compound 231, 3-[3-(5,6-dihydro-4H-pyrrolo[1,2-v]pyrazol-3-yl)-5-fluoropyridin-2-yl]-3-methoxy-5,5-dimethyl-6-oxocyclohex-1-ene-1-carbonitrile] | 0.016
COC1(c2ncc(F)cc2-c2cncc(C3CC3)c2)C=C(C#N)C(=O)C(C)(C)C1 (single isomer, unassigned) [Compound 232, 3-(5′-cyclopropyl-5-fluoro[3,3′-bipyridin]-2-yl)-3-methoxy-5,5-dimethyl-6-oxocyclohex-1-ene-1-carbonitrile] | 0.023
CCc1cncc(-c2cc(F)cnc2C2(OC)C=C(C#N)C(=O)C(C)(C)C2)c1 (single isomer, unassigned) [Compound 233, 3-(5′-ethyl-5-fluoro[3,3′-bipyridin]-2-yl)-3-methoxy-5,5-dimethyl-6-oxocyclohex-1-ene-1-carbonitrile] | 0.006
COc1ncc(C)cc1-c1cc(F)cnc1C1(OC)C=C(C#N)C(=O)C(C)(C)C1 (single isomer, unassigned) [Compound 234, 3-(5-fluoro-2′-methoxy-5′-methyl[3,3′-bipyridin]-2-yl)-3-methoxy-5,5-dimethyl-6-oxocyclohex-1-ene-1-carbonitrile] | 0.009
COC1(c2ncc(F)cc2-c2cncc(S(C)(=O)=O)c2)C=C(C#N)C(=O)C(C)(C)C1 (single isomer, unassigned) [Compound 235, 3-[5-fluoro-5′-(methylsulfonyl)[3,3′-bipyridin]-2-yl)-3-methoxy-5,5-dimethyl-6-oxocyclohex-1-ene-1-carbonitrile] | 0.079
COC1(c2ncc(F)cc2-c2ccnc(C(F)(F)F)c2)C=C(C#N)C(=O)C(C)(C)C1 (single isomer, unassigned) [Compound 236, 3-[5-fluoro-2′-(trifluoromethyl)[3,4′-bipyridin]-2-yl]-3-methoxy-5,5-dimethyl-6-oxocyclohex-1-ene-1-carbonitrile] | 0.017
COc1cncc(-c2cc(F)cnc2C2(OC)C=C(C#N)C(=O)C(C)(C)C2)c1 (single isomer, unassigned) [Compound 237, 3-(5-fluoro-5′-methoxy[3,3′-bipyridin]-2-yl)-3-methoxy-5,5-dimethyl-6-oxocyclohex-1-ene-1-carbonitrile] | 0.02
COC1(c2ncc(Cl)cc2C(F)F)C=C(C#N)C(=O)C2(CC2)C1 (single isomer, unassigned) [Compound 238, 7-[5-chloro-3-(difluoromethyl)pyridin-2-yl]-7-methoxy-4-oxospiro[2.5]oct-5-ene-5-carbonitrile] | 0.044
COC1(c2cc(C(F)(F)F)ccn2)C=C(C#N)C(=O)C(C)(C)C1 (stereo not shown) [Compound 1, 3-methoxy-5,5-dimethyl-6-oxo-3-[4-(trifluoromethyl)-2-pyridyl]cyclohexene-1-carbonitrile] | 0.408
COC1(c2cccc(Br)n2)C=C(C#N)C(=O)C(C)(C)C1 (stereo not shown) [Compound 2, 3-(6-bromo-2-pyridyl)-3-methoxy-5,5-dimethyl-6-oxo-cyclohexene-1-carbonitrile] | 0.228
COC1(c2ccc(C(F)(F)F)cn2)C=C(C#N)C(=O)C(C)(C)C1 (stereo not shown) [Compound 3, 3-methoxy-5,5-dimethyl-6-oxo-3-[5-(trifluoromethyl)-2-pyridyl]cyclohexene-1-carbonitrile] | 0.424
COC1(c2nccc3ccccc23)C=C(C#N)C(=O)C(C)(C)C1 (stereo not shown) [Compound 4, 3-(1-isoquinolyl)-3-methoxy-5,5-dimethyl-6-oxo-cyclohexene-1-carbonitrile] | 1.14
CC1(C)CC(O)(c2ncccc2C(F)F)C=C(C#N)C1=O (stereo not shown) [Compound 6, 3-[3-(difluoromethyl)-2-pyridyl]-3-hydroxy-5,5-dimethyl-6-oxo-cyclohexene-1-carbonitrile] | > 10
COC1(c2ncccc2-c2ccccc2)C=C(C#N)C(=O)C(C)(C)C1 (stereo not shown) [Compound 7, 3-methoxy-5,5-dimethyl-6-oxo-3-(3-phenyl-2-pyridyl)cyclohexene-1-carbonitrile] | 0.082
COC1CN(c2cccc(C3(OC)C=C(C#N)C(=O)C(C)(C)C3)n2)C1 (stereo not shown) [Compound 8, 3-methoxy-3-[6-(3-methoxyazetidin-1-yl)-2-pyridyl]-5,5-dimethyl-6-oxo-cyclohexene-1-carbonitrile] | 0.186
COC1(c2ccccn2)C=C(C#N)C(=O)C(C)(C)C1 (stereo not shown) [Compound 11, 3-methoxy-5,5-dimethyl-6-oxo-3-(2-pyridyl)cyclohexene-1-carbonitrile] | 0.085
COC1(c2cccc(-n3ccnc3C)n2)C=C(C#N)C(=O)C(C)(C)C1 (stereo not shown) [Compound 12, 3-methoxy-5,5-dimethyl-3-[6-(2-methylimidazol-1-yl)-2-pyridyl]-6-oxo-cyclohexene-1-carbonitrile] | 0.119

Structure (SMILES) | EC50 [µM]
COC1(c2ccc(C)nc2)C=C(C#N)C(=O)C(C)(C)C1 (stereo not shown) [Compound 16, 3-methoxy-5,5-dimethyl-3-(6-methyl-3-pyridyl)-6-oxo-cyclohexene-1-carbonitrile] | 0.66
COC1(c2cccnc2Cl)C=C(C#N)C(=O)C(C)(C)C1 (stereo not shown) [Compound 18, 3-(2-chloro-3-pyridyl)-3-methoxy-5,5-dimethyl-6-oxo-cyclohexene-1-carbonitrile] | 0.265
COC1(c2ccccc2C(F)(F)F)C=C(C#N)C(=O)C(C)(C)C1 (stereo not shown) [Compound 19, 3-methoxy-5,5-dimethyl-6-oxo-3-[2-(trifluoromethyl)phenyl]cyclohexene-1-carbonitrile] | 1.24
COC1(c2cccc(C(F)(F)F)n2)C=C(C#N)C(=O)C(C)(C)C1 (stereo not shown) [Compound 20, 3-methoxy-5,5-dimethyl-6-oxo-3-[6-(trifluoromethyl)-2-pyridyl]cyclo-hexene-1-carbonitrile] | 0.126
COC1(c2cccnc2Br)C=C(C#N)C(=O)C(C)(C)C1 (stereo not shown) [Compound 21, 3-(2-bromo-3-pyridyl)-3-methoxy-5,5-dimethyl-6-oxo-cyclohexene-1-carbonitrile] | 0.452
COC1(c2ncccc2Br)C=C(C#N)C(=O)C(C)(C)C1 (stereo not shown) [Compound 22, 3-(3-bromo-2-pyridyl)-3-methoxy-5,5-dimethyl-6-oxo-cyclohexene-1-carbonitrile] | 0.045
CC1(C)CC(O)(c2ccc(C(F)(F)F)cn2)C=C(C#N)C1=O (stereo not shown) [Compound 24, 3-hydroxy-5,5-dimethyl-6-oxo-3-[5-(trifluoromethyl)-2-pyridyl]cyclo-hexene-1-carbonitrile] | > 10
COC1(c2cccnc2-c2cnn(C)c2)C=C(C#N)C(=O)C(C)(C)C1 (stereo not shown) [Compound 25, 3-methoxy-5,5-dimethyl-3-[2-(1-methylpyrazol-4-yl)-3-pyridyl]-6-oxo-cyclohexene-1-carbonitrile] | 0.07
COC1(c2ncc(F)cc2F)C=C(C#N)C(=O)C(C)(C)C1 (stereo not shown) [Compound 28, 3-(3,5-difluoropyridin-2-yl)-3-methoxy-5,5-dimethyl-6-oxocyclohex-1-enecarbonitrile] | 0.036
COC1(c2ccc(C)nc2C)C=C(C#N)C(=O)C(C)(C)C1 (stereo not shown) [Compound 29, 3-(2,6-dimethylpyridin-3-yl)-3-methoxy-5,5-dimethyl-6-oxocyclohex-1-enecarbonitrile] | 0.091
COC1(c2cncc(C)n2)C=C(C#N)C(=O)C(C)(C)C1 (stereo not shown) [Compound 30, 3-methoxy-5,5-dimethyl-3-(6-methylpyrazin-2-yl)-6-oxocyclohex-1-enecarbonitrile] | 0.458
CO[C@]1(c2ncsc2C)C=C(C#N)C(=O)C(C)(C)C1 [Compound 38, (S)-3-methoxy-5,5-dimethyl-3-(5-methylthiazol-4-yl)-6-oxocyclohex-1-enecarbonitrile] | 0.132
CO[C@]1(c2ncc(C)s2)C=C(C#N)C(=O)C(C)(C)C1 [Compound 40, (S)-3-methoxy-5,5-dimethyl-3-(5-methylthiazol-2-yl)-6-oxocyclohex-1-enecarbonitrile] | 0.038
CO[C@]1(c2ncc(F)cc2C(F)F)C=C(C#N)C(=O)C(C)(C)C1 [Compound 42, (3S)-3-[3-(difluoromethyl)-5-fluoropyridin-2-yl]-3-methoxy-5,5-dimethyl-6-oxocyclohex-1-ene-1-carbonitrile] | 0.033
COC1(c2sc(C)nc2C)C=C(C#N)C(=O)C(C)(C)C1 (stereo not shown) [Compound 46, 3-(2,4-dimethylthiazol-5-yl)-3-methoxy-5,5-dimethyl-6-oxocyclohex-1-enecarbonitrile] | 0.304
CO[C@]1(c2ncccc2C(F)F)C=C(C#N)C(=O)C2(CC2)C1 [Compound 55, (S)-7-[3-(difluoromethyl)pyridin-2-yl]-7-methoxy-4-oxospiro[2.5]oct-5-ene-5-carbonitrile] | 0.014
COC1(c2ncc(C)s2)C=C(C#N)C(=O)C2(CC2)C1 (stereo not shown) [Compound 64, 7-methoxy-7-(5-methyl-1,3-thiazol-2-yl)-4-oxospiro[2.5]oct-5-ene-5-carbonitrile] | 0.145
COC1(c2ccc(Cl)cn2)C=C(C#N)C(=O)C2(CC2)C1 (stereo not shown) [Compound 65, 7-(5-chloropyridin-2-yl)-7-methoxy-4-oxospiro[2.5]oct-5-ene-5-carbonitrile] | 0.247
